In patent US4416885A, “Use of isopropylaminopyrimidine in the chemotherapy of muscular dystrophy, myopathy and myotonia” (priority 1982, dated 1983):

Tests used:
[1] = system: plasma PK (pyruvate kinase); assay: Plasma PK; type: in vivo, chicken
Experimental: Chemotherapy was assessed by application of seven different parameters: physical tests of muscular disability, namely the flip test and wing apposition (W.A.) measurements; biochemical assays of serum and muscle enzume levels of creatine phosphokinase (CPK), pyruvate kinase (PK) and acetylcholinesterase (AChE); and histological comparisons of treated and untreated muscle. Toxicity studies (weight loss, etc.) were also used. A very comprehensive profile of the drug was thus obtained which related to all the known, highly characteristic features of the disease which are applicable to both the animal model and the human.
A massive rise in this enzyme level also occurs in the dystrophic chicken compared to the normal control, as it does in the human disease.
The drug was administered daily in water, injected intra-peritoneally, the amount being adjusted on a weekly basis according to the animal's weight.
Finally, oral therapy with IAPP was undertaken at gradually increasing dosages up to 1 g/Kg/day. The parameters (physical, biochemical and histological) measured previously were again used to test the efficacy of the drug; five different dosages were used orally, each being given for 30-60 days, daily (Tables VII-XI). A total of 75 animals were treated in the current study with IAPP and 70 control animals were used.

[2] = system: dystrophic chickens 413; assay: Experiment 4, weight of dystrophic chickens injected with IAPP; type: in vivo, chicken; settings: for Weight: 50 mg/Kg
Experimental: (§1) All chickens were injected with 50 mg/Kg IAPP and weighed approximately every second or third day.
(§2) A: Control-injected with PBS
(§3) B, C, D: Experimental-injected with 50 mg/Kg IAPP

[3] = system: normal chickens 412; assay: Experiment 4, weight of normal chickens injected with IAPP; type: in vivo, chicken; settings: 50 mg/Kg
Experimental: as §1, §2, §3

[4] = system: plasma PK (pyruvate kinase); assay: Plasma PK; type: in vivo, chicken; settings: 300 mg/Kg i.p. three times weekly for 30 days, day 28 ex ovo
[5] = system: 413 dystrophic skeletal explants; assay: Effect on dystrophic skeletal explants in cell culture (microtubules); type: cell-based, chicken; settings: upon incubation in IAPP, 0.5 mg/ml; skeletal and cardiac explants
Experimental: In these experiments 2-week and 3-week normal and dystrophic chickens (that had no previous injections with IAPP) were sacrificed and skeletal and cardiac explants were placed in culture with 0.5 mg/ml IAPP added. The pooled results of these experiments are as follows: […]

[6] = 200 mg/Kg i.p. daily for 30 days, day 28 ex ovo
[7] = 200 mg/Kg i.p. daily for 30 days, day 56 ex ovo
[8] = 200 mg/Kg i.p. daily for 30 days, day 84 ex ovo
[9] = 300 mg/Kg i.p. daily for 30 days, day 28 ex ovo
[10] = 300 mg/Kg i.p. daily for 30 days, day 56 ex ovo
[11] = 300 mg/Kg i.p. daily for 30 days, day 84 ex ovo
[12] = 300 mg/Kg i.p. three times weekly for 30 days, day 84 ex ovo
[13] = Table VII, oral 200 mg/Kg, 60 days, day 28 ex ovo
[14] = Table VII, oral 200 mg/Kg, 60 days, day 35 ex ovo
[15] = oral 300 mg/Kg daily, day 28 ex ovo
[16] = oral 300 mg/Kg daily, day 35 ex ovo
[17] = oral 450 mg/Kg daily for 45 days, day 35 ex ovo
[18] = oral 450 mg/Kg daily for 45 days, day 50 ex ovo
[19] = oral 600 mg/Kg daily, day 35 ex ovo
[20] = oral 600 mg/Kg daily, day 50 ex ovo
[21] = oral 1 g/Kg daily, day 28 ex ovo
[22] = oral 1 g/Kg daily, day 35 ex ovo

CC(C)Nc1ncccn1.O=P(O)(O)O [IAPP, 2-isopropylaminopyrimidine orthophosphate]
PK [1, 6]: 377
PK, % change from control [1, 6]: -47%
PK [1, 7]: 1612
PK, % change from control [1, 7]: -45%
PK [1, 8]: 2949
PK, % change from control [1, 8]: -36%
PK [1, 9]: 429
PK, % change from control [1, 9]: -40%
PK [1, 10]: 2447
PK, % change from control [1, 10]: -16%
PK [1, 11]: 5282
PK, % change from control [1, 11]: +15%
PK, % change from control ([1]; 300 mg/Kg i.p. three times weekly for 30 days, day 28 ex ovo): -30%
PK ([1]; 300 mg/Kg i.p. three times weekly for 30 days, day 56 ex ovo): 2486
PK [1, 12]: 3766
PK, % change from control [1, 12]: -18%
% PK Change vs untreated dystrophic controls ([1]; Exp. 2, 40 mg/Kg i.p. daily, day 14-20): -38%
% PK Change vs untreated dystrophic controls ([1]; Exp. 2, 40 mg/Kg i.p. daily, day 21-27): -57%
% PK Change vs untreated dystrophic controls ([1]; Exp. 2, 40 mg/Kg i.p. daily, day 28-34): -60%
% PK Change vs untreated dystrophic controls ([1]; Exp. 2, 40 mg/Kg i.p. daily, day 35-41): -48%
% PK Change vs untreated dystrophic controls ([1]; Exp. 2, 40 mg/Kg i.p. daily, day 42-48): -58%
% PK Change vs untreated dystrophic controls ([1]; Exp. 2, 40 mg/Kg i.p. daily, day 56-62): -42%
% PK Change vs untreated dystrophic controls ([1]; Exp. 2, 40 mg/Kg i.p. daily, day 63-71): -41%
% PK Change vs untreated dystrophic controls ([1]; Exp. 3, 70 mg/Kg i.p. daily, day 21-27): -32%
% PK Change vs untreated dystrophic controls ([1]; Exp. 3, 70 mg/Kg i.p. daily, day 28-34): -65%
PK [1, 13]: 1925
PK, % change from control [1, 13]: -4%
PK [1, 14]: 2150
PK, % change from control [1, 14]: +6%
PK [1, 15]: 2010
PK, % change from control [1, 15]: +1%
PK [1, 16]: 907
PK, % change from control [1, 16]: +28%
PK [1, 17]: 2520
PK, % change from control [1, 17]: +0.6%
PK [1, 18]: 3891
PK, % change from control [1, 18]: +7%
PK [1, 19]: 1639
PK, % change from control [1, 19]: -36%
PK [1, 20]: 2824
PK, % change from control [1, 20]: -22%
PK [1, 21]: 1080
PK, % change from control [1, 21]: -48%
PK [1, 22]: 1812
PK, % change from control [1, 22]: -50%
Toxic side effect ([2]; Exp. 4, 50 mg/Kg injected, normal and dystrophic chickens): There did not appear to be a toxic side effect
Weight ([2]; Exp. 4, 413B, day 1): 48.3 GRAMS
Weight ([2]; Exp. 4, 413B, day 4): 51.2 GRAMS
Weight ([2]; Exp. 4, 413B, day 7): 56.7 GRAMS
Weight ([2]; Exp. 4, 413B, day 9): 58.1 GRAMS
Weight ([2]; Exp. 4, 413C, day 1): 36.9 GRAMS
Weight ([2]; Exp. 4, 413C, day 4): 44.4 GRAMS
Weight ([2]; Exp. 4, 413C, day 7): 49.9 GRAMS
Weight ([2]; Exp. 4, 413C, day 9): 45.2 GRAMS
Weight ([2]; Exp. 4, 413C, day 11): 53.2 GRAMS
Weight ([2]; Exp. 4, 413C, day 14): 77.4 GRAMS
Weight ([2]; Exp. 4, 413C, day 16): 90.5 GRAMS
Weight ([2]; Exp. 4, 413C, day 17): 104.8 GRAMS
Weight ([2]; Exp. 4, 413D, day 1): 44.5 GRAMS
Weight ([2]; Exp. 4, 413D, day 4): 51.2 GRAMS
Weight ([2]; Exp. 4, 413D, day 7): 59.8 GRAMS
Weight ([2]; Exp. 4, 413D, day 9): 56.5 GRAMS
Weight ([2]; Exp. 4, 413D, day 11): 65.4 GRAMS
Weight ([2]; Exp. 4, 413D, day 14): 93.7 GRAMS
Weight ([2]; Exp. 4, 413D, day 16): 115.1 GRAMS
Weight ([2]; Exp. 4, 413D, day 20): 161.3 GRAMS
Weight ([2]; Exp. 4, 413D, day 22): 210.2 GRAMS
Weight ([2]; Exp. 4, 413D, day 25): 240.7 GRAMS
Weight ([3]; Exp. 4, 412B, day 1): 51.3 GRAMS
Weight ([3]; Exp. 4, 412B, day 4): 55.8 GRAMS
Weight ([3]; Exp. 4, 412B, day 7): 67.6 GRAMS
Weight ([3]; Exp. 4, 412B, day 9): 68.1 GRAMS
Weight ([3]; Exp. 4, 412C, day 1): 50.8 GRAMS
Weight ([3]; Exp. 4, 412C, day 4): 59.9 GRAMS
Weight ([3]; Exp. 4, 412C, day 7): 67.8 GRAMS
Weight ([3]; Exp. 4, 412C, day 9): 67.7 GRAMS
Weight ([3]; Exp. 4, 412C, day 11): 76.4 GRAMS
Weight ([3]; Exp. 4, 412C, day 14): 111.8 GRAMS
Weight ([3]; Exp. 4, 412C, day 16): 139.0 GRAMS
Weight ([3]; Exp. 4, 412C, day 17): 150.2 GRAMS
Weight ([3]; Exp. 4, 412D, day 1): 52.6 GRAMS
Weight ([3]; Exp. 4, 412D, day 4): 60.5 GRAMS
Weight ([3]; Exp. 4, 412D, day 7): 67.7 GRAMS
Weight ([3]; Exp. 4, 412D, day 9): 67.7 GRAMS
Weight ([3]; Exp. 4, 412D, day 11): 76.6 GRAMS
Weight ([3]; Exp. 4, 412D, day 14): 112.8 GRAMS
Weight ([3]; Exp. 4, 412D, day 16): 139.6 GRAMS
Weight ([3]; Exp. 4, 412D, day 20): 191.5 GRAMS
Weight ([3]; Exp. 4, 412D, day 22): 246.4 GRAMS
Weight ([3]; Exp. 4, 412D, day 25): 273.4 GRAMS
PK [4]: 499
Staining of microtubules in dystrophic cells in culture [5]: appears to normalize upon incubation in IAPP
